Legend:
recombinant human ARG2 = target: T1, recombinant human ARG2 (Homo sapiens, UniProt P78540); experiment: Recombinant arginase inhibition assay (colorimetric urea detection), ARG2; assay type: biochemical; settings: recombinant human ARG2, 20 mM L-arginine, 37 °C, 1 h, pH 7.4
T1 construct: made in house; host or cells: E. coli
T1 sequence (P78540 23-354): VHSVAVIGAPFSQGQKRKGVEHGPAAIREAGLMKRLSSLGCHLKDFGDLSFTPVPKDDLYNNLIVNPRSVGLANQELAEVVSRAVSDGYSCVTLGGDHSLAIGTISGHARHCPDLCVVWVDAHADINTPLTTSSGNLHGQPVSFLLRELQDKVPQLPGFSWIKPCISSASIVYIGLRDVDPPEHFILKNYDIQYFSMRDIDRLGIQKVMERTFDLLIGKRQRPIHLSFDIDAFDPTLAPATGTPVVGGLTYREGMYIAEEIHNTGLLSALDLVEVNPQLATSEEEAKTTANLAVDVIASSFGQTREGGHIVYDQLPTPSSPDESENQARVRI
Protocol: Recombinant enzymes (ARG1 or ARG2) were produced at Molecure SA—biosynthesized in E. coli expression system, purified by fast protein liquid chromatography, and stored at −80 °C in the storage buffer (20 mM Tris pH 8.0, 100 mM NaCl, 10 mM DDT, 10% glycerol). The enzymatic reaction was carried out at 37 °C for 1 h in the assay buffer (100 mM sodium phosphate buffer, 130 mM NaCl, pH 7.4) with the addition of 1 mg/mL BSA in the presence of 200 µM MnCl2 (enzyme cofactor), 10 mM (for ARG1) or 20 mM (for ARG2) of L-arginine hydrochloride (enzyme substrate), and serial dilutions of the test compounds. The inhibition of the arginase activity was determined by colorimetric detection of produced urea, as previously described with minor changes. Briefly, 150 µL of freshly prepared developing reagent (2 mM o-phthaldialdehyde (OPA), 2 mM N-(1-naphthyl)ethylenediamine dihydrochloride (NED), 50 mM boric acid, 1 M sulfuric acid, 0.03% Brij-35) was added to each well, incubated for 20 min at RT, then the absorbance at 515 nm was measured. Normalized values were fitted to a four-parameter equation using GraphPad Prism and IC50 values were determined. […]

K562 tumours = experiment: K562 xenograft model in T and NK cell-deficient Fox Chase SCID Beige mice; assay type: in vivo, mouse; settings: 50 mg/kg PO BID from day 7, day 19
Protocol: CT26 and K562 in vivo experiments were conducted at Molecure SA. All experimental procedures were approved by the 1st Local Ethics Committee in Warsaw (Poland). For the syngeneic CT26 model, 7–8-week old BALB/c females (n = 9–18 per group, BALB/cAnNCrl, Charles River Laboratories) were injected subcutaneously in the right flank with 5 × 10^5 CT26 cells. […] Anti-PD-L1 antibody (InVivoPlus anti-mouse PD-L1, clone 10F.9G2, BioXCell, lot 615416D1) was injected intraperitoneally at 2.5 mg/kg on days: 8, 10, 12, 14 and 16 post tumour cells inoculation. Control groups received vehicle (saline) or isotype antibody (InVivoPlus rat IgG2b, anti-KLH, BioXCell, lot 629816D1). For the xenograft K562 model, 7–8 week-old athymic nude mice (n = 8–11 per group, Crl:NU(NCr)-Foxn1^nu, Charles River Laboratories) or NK cell-deficient Fox Chase SCID Beige mice (n = 10–12 per group, CB17.Cg-Prkdc^scidLyst^bg-J/Crl, Charles River Laboratories) were injected subcutaneously in the right flank with 1 × 10^7 K562 cells. […] Tumour volume measured by a digital calliper (width × length × depth × π/6) was recorded three times per week. Animals were euthanized when tumours were necrotized or volume exceeded 2000 mm^3. Renca in vivo efficacy study was performed at Crown Biosciences Inc. (Taicang, China). […] Tumour volumes (length × width^2 × 0.5) were measured twice per week. […]

CT26 tumours = experiment: Syngeneic CT26 colorectal carcinoma model, monotherapy, with plasma/tumour bioanalytics; assay type: in vivo, mouse; settings: for final TGI (tumour growth inhibition): CT26 in BALB/c mice, 100 mg/kg, PO, BID from day 1 post-inoculation
Protocol: CT26 and K562 in vivo experiments were conducted at Molecure SA. All experimental procedures were approved by the 1st Local Ethics Committee in Warsaw (Poland). For the syngeneic CT26 model, 7–8-week old BALB/c females (n = 9–18 per group, BALB/cAnNCrl, Charles River Laboratories) were injected subcutaneously in the right flank with 5 × 10^5 CT26 cells. […] Anti-PD-L1 antibody (InVivoPlus anti-mouse PD-L1, clone 10F.9G2, BioXCell, lot 615416D1) was injected intraperitoneally at 2.5 mg/kg on days: 8, 10, 12, 14 and 16 post tumour cells inoculation. Control groups received vehicle (saline) or isotype antibody (InVivoPlus rat IgG2b, anti-KLH, BioXCell, lot 629816D1). For the xenograft K562 model, 7–8 week-old athymic nude mice (n = 8–11 per group, Crl:NU(NCr)-Foxn1^nu, Charles River Laboratories) or NK cell-deficient Fox Chase SCID Beige mice (n = 10–12 per group, CB17.Cg-Prkdc^scidLyst^bg-J/Crl, Charles River Laboratories) were injected subcutaneously in the right flank with 1 × 10^7 K562 cells. […] Tumour volume measured by a digital calliper (width × length × depth × π/6) was recorded three times per week. Animals were euthanized when tumours were necrotized or volume exceeded 2000 mm^3. Renca in vivo efficacy study was performed at Crown Biosciences Inc. (Taicang, China). All experimental procedures on animals were approved by the Institutional Animal Care and Use Committee (IACUC) and conducted in accordance with the regulations of the Association for Assessment and Accreditation of Laboratory Animal Care (AAALAC). For the syngeneic Renca model, 6–7 week-old BALB/c females (n = 12 per group, Shanghai Lingchang Biotechnology, Shanghai, China) were injected subcutaneously in the right flank with 1 × 10^6 Renca cells. Tumour volumes (length × width^2 × 0.5) were measured twice per week. OATD-02 was dosed twice per day at 75 mg/kg by oral gavage. A dosing holiday was given to individuals with bodyweight loss exceeding 15% of the initial body weight and the treatment was resumed when the bodyweight loss recovered to less than 10%. Due to the cachexic nature of the Renca model, all animals were supplemented with DietGel to help maintain their body weight.
The concentrations of OATD-02, the reference ARGi or L-arginine were determined in plasma samples or tumour homogenates using liquid chromatography coupled with tandem mass spectrometry (LC-MS/MS). Sample preparation was based on protein precipitation using acetonitrile. The resulting supernatants were analysed using hydrophilic interaction liquid chromatography (HILIC) with subsequent MS detection based on optimised MRM transitions. Matrix-matched calibration and quality control samples were prepared for quantification of OATD-02 and the reference ARGi. Due to the endogenous character of L-arginine, a surrogate matrix was used for its detection.
All statistical analyses were performed using GraphPad Prism (ver. 9, GraphPad Software, Inc., San Diego, CA, USA). Data sets with normal distribution were described as means with SEM (standard error of the mean). Otherwise, the median value was shown and the U Mann–Whitney or the Kruskal–Wallis tests were applied for intergroup comparisons. Differences at p-value less than 0.05 were considered statistically significant. TGI (tumour growth inhibition) index was calculated by the formula: (1 − A/B) × 100%, where A is the tumour volume in the treated group and B is the volume in the control group. […]

[1] = target: intracellular arginase in human primary hepatocytes; experiment: Liver arginase inhibition assay in human primary hepatocytes (urea in supernatant); assay type: cell-based; settings: 24 h incubation, 5 mM L-arginine

Row | Structure (SMILES) | IC50 (recombinant human ARG2) [µM] | final TGI, K562 tumor volumes, Fox Chase SCID Beige mice (K562 tumours) [%] | fold change of endogenous plasma L-arginine (CT26 tumours; CT26-bearing mice, 100 mg/kg PO BID, 6 h after the last dosing) | final TGI (tumour growth inhibition) (CT26 tumours) [%] | fold change of L-arginine in tumour homogenates (CT26 tumours; CT26 tumours, 100 mg/kg PO BID, within the first 6 h post-dosing) | IC50 [1] [µM] | oral bioavailability (plasma concentrations, compared between the two inhibitors) (CT26 tumours; CT26-bearing mice, 100 mg/kg PO BID, Figure 2B) | IC50 ([1]; Hepatocyte) [µM]
1 | CN(C)C[C@@H]1CC[C@@H](CCB(O)O)C[C@]1(N)C(=O)O [OATD-02] | 0.034 | 47 | up to 6.7 fold | 48 | up to 6.9 fold | 14.2 | – | –
2 | C[C@H](N)C(=O)N1C[C@H](CCCB(O)O)[C@](N)(C(=O)O)C1 [ref. ARGi, numidargistat, reference compound] | 0.335 | – | – | 28 | – | – | higher oral bioavailability | 50.1
